Source: publication PMC9456187, “The Ambivalence of Connexin43 Gap Peptides in Cardioprotection of the Isolated Heart against Ischemic Injury” (International Journal of Molecular Sciences, 2022)

What was measured:
[1] = system: isolated perfused male rat hearts (connexin43 hemichannels); assay: Infarct size (TTC staining) after global ischemia-reperfusion, Langendorff-perfused heart; design: species or system male Wistar rat
Description: (§1) All experiments were approved by the Norwegian animal research authority and were performed according to the Norwegian Animal Welfare Act and the European Convention for the Protection of Vertebrate Animals Used for Experimental and other Scientific Purposes (ETS No. 123 and 2010/63/EU). Male Wistar rats 250–350 g (Charles River, UK) were anesthetized with pentobarbital (100 mg/kg i.p.) and heparinized (300 IU i.p.), the chest opened and the heart removed.
(§2) The heart was immediately submerged in an ice-cold buffer and quickly mounted on the perfusion apparatus, where it was perfused with the Krebs–Henseleit buffer (gassed with 5% CO2 and 95%O2) in a constant pressure Langendorff setup (100 cm H2O). The temperature was kept at 37 °C during the whole experiment by keeping the heart submerged in a heated buffer. Left ventricular pressure was recorded using a balloon catheter connected to a pressure transducer. Coronary flow was measured by timed collections of perfusate.
Hearts were stabilized for 15 min, then either subjected to 30 min of global ischemia and 2 h of reperfusion or preconditioning with 3 cycles of 5 min of ischemia and reperfusion (IPC) before 30 min of global ischemia and 2 h of reperfusion. Care was taken to secure controls corresponding in time and rat batch with the intervention experiments.
Connexin mimetic peptides Gap19 (amino acid sequence KQIEKKFK), Gap26 (VCYDKSFPISHVR) and Gap27 (SRPTEKTIFII) from Pepnome Inc., Hong Kong, China, were dissolved in the Krebs–Henseleit buffer to a final concentration of 0.5 µM [7, 12] and used in experiments the same day. Amino-acid sequences were confirmed by mass spectrometry analysis. The hearts that were subject to ischemia without IPC received the peptides prior to and after 30 min global ischemia. The hearts that were subject to IPC received the peptides during the preconditioning cycles only prior to 30 min ischemia.
At the end of reperfusion, the heart was immediately cut off caudal to the atria yielding only ventricular tissue. The ventricular tissue was then weighed in its wet state and immediately frozen to −18 °C for 24 h, sliced into four or five 2 mm thick slices and dyed with 1% 2, 3, 5 triphenyl tetrazolium chloride (TTC) (Sigma-Aldrich Co., Ltd., St. Louis, MI, USA) in Dulbecco’s phosphate buffered saline (PBS) (Sigma-Aldrich Co.). Each heart was submerged in 50mL of 1% TTC in PBS for 20 min at 37 °C in a light-free environment. Thereafter the slices were quickly dried and fixed in 4% formaldehyde for 30 min before they were scanned by a high-resolution scanner; the images were then blind-coded. Infarcts were manually traced, and the area of infarct relative to the whole area was quantified using Image J software. […]

[2] = system: isolated perfused male rat hearts; assay: Coronary flow in isolated perfused heart; design: species or system male Wistar rat; conditions: before 30 min ischemia; Gap peptide in buffer
Description: as §1, §2
Hearts were stabilized for 15 min, then either subjected to 30 min of global ischemia and 2 h of reperfusion or preconditioning with 3 cycles of 5 min of ischemia and reperfusion (IPC) before 30 min of global ischemia and 2 h of reperfusion. Care was taken to secure controls corresponding in time and rat batch with the intervention experiments. […]

In the case of KQIEKKFK [Gap19], the “Cardioprotection / infarct size reduction when combined with IPC (in words)” value ([1]; Gap peptide prior to and during three IPC cycles, not at reperfusion) is reported as “protection was maintained”, the “Infarct size in % of untreated control infarcts, Gap peptide combined with IPC” value ([1]; IPC 3 cycles of 5 min ischemia/reperfusion, Gap peptide 0.5 µM (Figure 1 legend: 0.05 µM) only during preconditioning cycles before 30 min global ischemia, 2 h reperfusion, TTC, mean ± SEM) is reported as 60.9 ± 5.1% and the “Infarct size reduction (in words)” value ([1]; no IPC, Gap peptide immediately prior to ischemia and first 10 min of reperfusion) is reported as “reducing infarct size to the same degree as ischemic preconditioning”. The “Infarct size in % of untreated control infarcts” value ([1]; no IPC, isolated rat heart, 37 °C, Gap peptide 0.5 µM (Figure 1 legend: 0.05 µM) prior to and after 30 min global ischemia, 2 h reperfusion, TTC, mean ± SEM) was 76.2 ± 2.7% and the “Coronary flow at baseline (in words)” value [2] was “significantly reduced with Gap19 compared to control (p < 0.05)”.
